| Compound | melting point [°C] |
| --- | --- |
| Nc1c(Br)cc(Br)c(O)c1Br | 119 |
| CC(C)(C)OC(=O)CN(CC(=O)O)CC(=O)OC(C)(C)C | 76 to 82 |
| Cc1cccc2c1c(N1CCOCC1)nc1c(-c3nc(C4CC4)no3)ncn12 | 262 to 266 |
| O=C(Nc1cccc(NCc2ccccc2)n1)c1cc(-c2ccc(F)cc2)n(C2CCCCO2)n1 (stereo not given) | 139 to 140 |
| CCCN1C(=O)CC(=O)N(CCC)C1=O | 77 to 80 |
| Nc1ccc(OC(F)(F)F)c(-c2nc3ccccc3o2)c1 | 133 to 135 |
| CCCc1c2c(c(NCC)c3c(=O)cc(C(=O)OCC)oc13)CCCC2 | 91.5 |
| O=C(Nc1ccc2cc(CN3CCCC3)ccc2c1)N1CCC(c2ccccc2)CC1 | 193 to 195 |
| c1ccc(CN2CCc3[nH]c4ccc(Oc5ccccc5)cc4c3C2)cc1 | 102 |
| COC(=O)c1ccc(Oc2ccc(NC(=O)c3ccc([N+](=O)[O-])cc3Br)cc2NC(=O)c2ccc([N+](=O)[O-])cc2Br)cc1C(=O)OC | 138 to 142 |
| O=c1c(CCCc2ccoc2)cc2cccnc2n1-c1cccc([N+](=O)[O-])c1 | 185 to 186 |
| CCc1nc(/C=C/c2cn(-c3ccccc3)nc2OCc2ccc(OCc3nc(-c4ccc(C(=O)O)s4)oc3C)c(OC)c2)cs1 | 150 to 151 |
| COc1ccc(C2=NN(SC(C)C)C(=O)C2(SC(C)C)SC(C)C)cc1 | 52 to 54 |
| C=CCC(C#N)(C#N)C(C)(C)c1cccc(Cl)c1 | 84.3 |
| CC(C)(C)OC(=O)CCON=C(C(=O)O)c1ccco1 | 74.7 to 77.2 |
| CCN1C(=O)Cc2cnc(N3CCN(Cc4ccccc4)CC3)nc21 | 110 to 113 |
| CCOC(=O)CNC(=O)C(C)(C(C)C)C(C)C | 74.5 to 75.5 |
| CC(C)c1cccc(C(C)C)c1NC(=O)NC(Cc1ccccc1)c1ccccc1 (stereo not given) | 219 to 221 |
| O=C(C=C1CCN(CCc2ccc(F)cc2)CC1)NCc1ccc(F)c(F)c1 | 117 to 120 |
| Cc1ccc([N+](=O)[O-])cc1-c1cn(C)cc(-c2ccccc2)c1=O | 185 to 187 |
| CC(C)(C)C#Cc1cc(Cl)cc2c1OC(C(F)(F)F)C(C(=O)O)=C2 (stereo not given) | 218 to 222 |
| Cc1cc(C(=O)O)c(C)c2c1SCCC2(C)C | 166 to 167 |

Second part, the compound after the results:

| melting point [°C] | Compound |
| --- | --- |
| 83 to 84 | CCOC(=O)C(=O)Nc1c(C)c(C)c2c(c1C)C(c1ccc(C(C)C)cc1)CO2 (stereo not given) |
| 208 to 210 | COC(=O)Cc1cc(=O)[nH]c2cc(Br)ccc12 |
| 194 to 195 | COc1cc2c(c(OC)c1OC)C(=O)c1c-2n(C)c(=O)c2ccccc12 |
| 117 to 119 | Cc1ccccc1NC(=O)c1ccccc1[Si](C)(C)C |
| 224 to 227 | COc1ccc(C(=O)Nc2ccccc2)cc1NS(=O)(=O)c1ccc([N+](=O)[O-])cc1 |
| 215 to 217 | COc1cc(OC)c(-c2cc3ccccc3s2)cc1/C=C/C(=O)c1ccc(C(=O)NCC(F)(F)F)cc1 |
| 142 to 144 | CCOC(=O)c1cccc(NC(=O)C(CO)NS(=O)(=O)c2ccc(Cl)cc2)c1 (racemic) |
| 184 to 185 | CC(=O)Nc1ccc(O)c(C)c1C |
| 301 to 303 | Cc1ccc(-n2cc(C(=O)O)c(=O)c3ccc(-c4ccncc4)cc32)cc1C |
| > 300 | Cn1c(=O)c(-c2c(Cl)cccc2Cl)cc2cnc(Nc3cccc(C(=O)O)c3)nc21 |
| 98 to 100 | O=C(O)CCSSc1ccc([N+](=O)[O-])cc1 |
| 62 | COc1ccc2cc(Br)sc2c1 |
| 50 to 53 | COCc1ccc(CCCOc2c(C)cc(-c3noc(C(F)(F)F)n3)cc2C)cn1 |
| 62 to 64 | O=[N+]([O-])c1ccc(CO)c(Cl)c1 |
| 260 to 262 | CCOc1ncc(N)cc1C(=O)O |
| 87 | O=C(CBr)C1=Cc2ccccc2OC1 |
| 70 to 75 | COc1ccc(CCc2oc3ccc(Br)cc3c2CCl)cc1 |
| 147 to 148 | CSc1cccc(NC(=O)N(O)C2CCCCC2)c1 |

Reference: a melting point compilation (Tetko et al.; mined from patent text by program, amines drawn as free bases though some values may be those of a salt)
